Experimental data: US20050112573A1, “Method of detecting toxic substance” (priority 2001, published 2005)

Test system: yeast genes (level of expressed mRNA)
Test: DNA chip analysis of expressed mRNA of yeast genes after 2 h culture with a toxic chemical substance
Format: cell-based, Saccharomyces cerevisiae S288C
Protocol: Yeast (Saccharomyces cerevtisiae S288C (α SUC2mal mel gap2 CUP1)) were cultured at 25° C. on YPD medium (yeast extract 1%, polypepton 2%, glucose 2%). One of toxic chemical substances was added to the cell at logarithmic growth phase, and the cell was further cultured for two hours. Cell was cultured without any chemical substance in the same condition, and was used as control. Concentrations of the chemical substances were defined to inhibit the growth of the yeast but not lead to death.
After the completion of cultivation, the culture was centrifuged to collect the cells. To the cells, sodium acetate buffer (50 mM sodium acetate, 10 mM EDTA, 1% SDS) was added, and the mixture was shaken at 65° C. for five minutes, followed by returning to room temperature, and obtaining the supernatant, which procedure was repeated two times. To the supernatant, ½ amount of a solution of phenol/chloroform was added, and the mixture was centrifuged to give a supernatant, which was added with an equal amount of chloroform, and the mixture was centrifuged to give a supernatant. To the supernatant, an equal amount of isopropanol containing 0.3 M sodium acetate was added, and the mixture was allowed to stand at room temperature for 30 minutes, after which the mixture was centrifuged to give a sediment of the whole RNAs. Seventy % ethanol was added to the sediment, and the mixture was again centrifuged to give a sediment, which was then dried and dissolved in water. mRNA was isolated from the whole RNAs as followings. In view of the fact that a poly A chain is attached to the 3′ terminus of mRNA, a polynucleotide having a poly T structure which was immobilized on the surface of latex beads was used to trap the mRNA, and then the mRNA was washed and eluted with spine column (Oligotex-dT30<Super>mRNA Purification Kit, Takara). Reverse transcription of the mRNA was conducted with a reverse transcriptase (Super Script II Reverse Transcriptase; catalogue No. 18064-014, GibcoBRL) using fluorescence-labeled nucleotides to give cDNAs that were introduced with Cy3-dUTP or Cy5-dUTP during the reverse transcription.
The labeled cDNAs were dissolved in TE buffer (10 mM Tris-HCl/1 mM EDTA, pH8.0), and the solution was dropped on the DNA chip containing the whole genes of yeast (DNA Chip Research Inc. Japan) so that the cDNAs were hybridized on the DNA chip at 65° C. for over 12 hours. The fluoresces intensity of the DNA chip was read with a scanner, and the ratio relative to the fluorescence intensity resulting from the absence of chemical substance was estimated as the following, which is shown in Tables 1 to 9: [formula]
In the Tables, “Intensity” indicated in the rightmost column is a value of the level of expressed mRNA of each gene in control cells as divided by the average level of the expressions of the whole genes.

C[S+](C)[O-] [(15), dimethylsulfoxide]
The level of expressed mRNA in the presence of chemical substance/absence: YML041C (gene YML041C): 1.0 | The level of expressed mRNA in the presence of chemical substance/absence: YML079W (gene YML079W): 0.3 | level of expressed mRNA in the presence of chemical substance/in its absence (gene YML110C): 1.3 | The level of expressed mRNA in the presence of chemical substance/absence: YML118W (gene YML118W): 2.2 | The level of expressed mRNA in the presence of chemical substance/absence: YMR068W (gene YMR068W): 2.2 | The level of expressed mRNA in the presence of chemical substance/absence: YMR071C (gene YMR071C): 0.8 | level of expressed mRNA in the presence of chemical substance/in its absence (gene YMR105C): 0.9 | The level of expressed mRNA in the presence of chemical substance/absence: YMR114C (gene YMR114C): 1.2 | The level of expressed mRNA in the presence of chemical substance/absence: YMR115W (gene YMR115W): 1.2 | The level of expressed mRNA in the presence of chemical substance/absence: YMR160W (gene YMR160W): 1.5 | level of expressed mRNA in the presence of chemical substance/in its absence (gene YMR189W): 5.6 | The level of expressed mRNA in the presence of chemical substance/absence: YMR258C (gene YMR258C): 0.6 | level of expressed mRNA in the presence of chemical substance/in its absence (gene YMR271C): 0.6 | level of expressed mRNA in the presence of chemical substance/in its absence (gene YMR272C): 1.1 | level of expressed mRNA in the presence of chemical substance/in its absence (gene YMR296C): 6.7 | level of expressed mRNA in the presence of chemical substance/in its absence (gene YNL012W): 1.6 | The level of expressed mRNA in the presence of chemical substance/absence: YNL026W (gene YNL026W): 0.8 | level of expressed mRNA in the presence of chemical substance/in its absence (gene YNL037C): 0.9 | level of expressed mRNA in the presence of chemical substance/in its absence (gene YNL045W): 0.8 | The level of expressed mRNA in the presence of chemical substance/absence: YNL058C (gene YNL058C): 2.2 | The level of expressed mRNA in the presence of chemical substance/absence: YNL063W (gene YNL063W): 0.7 | level of expressed mRNA in the presence of chemical substance/in its absence (gene YNL104C): 2.5 | level of expressed mRNA in the presence of chemical substance/in its absence (gene YNL106C): 3.3 | level of expressed mRNA in the presence of chemical substance/in its absence (gene YNL130C): 2.5 | level of expressed mRNA in the presence of chemical substance/in its absence (gene YNL169C): 3.4 | The level of expressed mRNA in the presence of chemical substance/absence: YNL176C (gene YNL176C): 0.8 | The level of expressed mRNA in the presence of chemical substance/absence: YNL181W (gene YNL181W): 1.0 | The level of expressed mRNA in the presence of chemical substance/absence: YNL191W (gene YNL191W): 1.0 | The level of expressed mRNA in the presence of chemical substance/absence: YNL194C (gene YNL194C): 0.5 | The level of expressed mRNA in the presence of chemical substance/absence: YNL200C (gene YNL200C): 0.8 | The level of expressed mRNA in the presence of chemical substance/absence: YNL212W (gene YNL212W): 0.9 | level of expressed mRNA in the presence of chemical substance/in its absence (gene YNL231C): 0.9 | The level of expressed mRNA in the presence of chemical substance/absence: YNL253W (gene YNL253W): 0.5 | The level of expressed mRNA in the presence of chemical substance/absence: YNL265C (gene YNL265C): 0.6 | The level of expressed mRNA in the presence of chemical substance/absence: YNL276C (gene YNL276C): 0.5 | level of expressed mRNA in the presence of chemical substance/in its absence (gene YNL322C): 3.7 | level of expressed mRNA in the presence of chemical substance/in its absence (gene YNR002C): 1.0 | level of expressed mRNA in the presence of chemical substance/in its absence (gene YNR019W): 1.6 | level of expressed mRNA in the presence of chemical substance/in its absence (gene YNR033W): 1.3 | The level of expressed mRNA in the presence of chemical substance/absence: YNR051C (gene YNR051C): 1.2 | level of expressed mRNA in the presence of chemical substance/in its absence (gene YNR059W): 1.0 | The level of expressed mRNA in the presence of chemical substance/absence: YOL026C (gene YOL026C): 0.9 | The level of expressed mRNA in the presence of chemical substance/absence: YOL030W (gene YOL030W): 0.9 | level of expressed mRNA in the presence of chemical substance/in its absence (gene YOL058W): 2.7 | level of expressed mRNA in the presence of chemical substance/in its absence (gene YOL126C): 1.4 | level of expressed mRNA in the presence of chemical substance/in its absence (gene YOL143C): 1.0 | level of expressed mRNA in the presence of chemical substance/in its absence (gene YOL153C): 1.2 | level of expressed mRNA in the presence of chemical substance/in its absence (gene YOL157C): 1.1 | The level of expressed mRNA in the presence of chemical substance/absence: YOR022C (gene YOR022C): 0.8 | The level of expressed mRNA in the presence of chemical substance/absence: YOR087W (gene YOR087W): 0.8 | The level of expressed mRNA in the presence of chemical substance/absence: YOR088W (gene YOR088W): 0.8 | level of expressed mRNA in the presence of chemical substance/in its absence (gene YOR099W): 1.5 | level of expressed mRNA in the presence of chemical substance/in its absence (gene YOR130C): 1.0 | level of expressed mRNA in the presence of chemical substance/in its absence (gene YOR136W): 1.2 | The level of expressed mRNA in the presence of chemical substance/absence: YOR138C (gene YOR138C): 1.0 | The level of expressed mRNA in the presence of chemical substance/absence: YOR155C (gene YOR155C): 0.9 | The level of expressed mRNA in the presence of chemical substance/absence: YOR253W (gene YOR253W): 1.1
